Patent publication US11141413B2, “Method of treating renal cell carcinoma using N-(4-(6,7-dimethoxyquinolin-4-yloxy)phenyl)-N′-(4-fluorophenyl)cyclopropane-1,1-dicarboxamide, (2S)-hydroxybutanedioate” (Exelixis, Inc., priority 2016, dated 2021)

Key:
[1] = Solubility in aqueous media; type: physicochemical
[2] = tested on: metastatic renal cell carcinoma (mRCC); assay: CABOSUN (ALLIANCE A031203) trial, cabozantinib vs sunitinib as initial targeted therapy
Protocol: Pts were randomized 1:1 to receive Cabo (60 mg QD) or Sun (50 mg QD, 4 weeks on/2 weeks off). Pts were stratified by the IMDC risk groups (intermediate vs. poor risk) and bone metastasis (yes, no). […] Secondary endpoints included OS, investigator-assessed overall response rate (ORR), and toxicity. The Kaplan-Meier product-limit estimator was used to estimate the OS between treatment arms.

[3] = tested on: advanced renal cell carcinoma; conditions: nivolumab study; cited from earlier work

COc1cc2nccc(Oc3ccc(NC(=O)C4(C(=O)Nc5ccc(F)cc5)CC4)cc3)c2cc1OC.O=C(O)C[C@H](O)C(=O)O [Cabozantinib (S)-malate salt, N-(4-(6,7-dimethoxyquinolin-4-yloxy)phenyl)-N′-(4-fluorophenyl)cyclopropane-1,1-dicarboxamide, (2S)-hydroxybutanedioate]
Solubility in aqueous media [1]: practically insoluble in aqueous media

CCN(CC)CCNC(=O)c1c(C)[nH]c(/C=C2\C(=O)Nc3ccc(F)cc32)c1C [sunitinib, reference compound]
All-causality grade 3 or 4 adverse events ([2]; human, in vivo): 68% | Diarrhea, grade 3 or 4 ([2]; human, in vivo): I1% | Fatigue, grade 3 or 4 ([2]; human, in vivo): 15% | Hematologic adverse events, grade 3 or 4 ([2]; human, in vivo): 22% | Hypertension, grade 3 or 4 ([2]; human, in vivo): 22% | Palmar-plantar erythrodysesthesia, grade 3 or 4 ([2]; human, in vivo): 4% | Median OS ([2]; in vivo): 21.8 months | ORR ([2]; in vivo): 18% | Median PFS ([2]; untreated mRCC, intermediate or poor risk): 5.6 months

nivolumab
Hazard ratio for death vs everolimus [3]: 0.73
